Measured values as given in patent US10421761B2, “Compounds for kinase modulation, and indications therefor” (Plexxikon Inc., priority 2013, dated 2019).

System: B9 cells
Details: B9 cells

For `CCCS(=O)(=O)Nc1ccc(F)c(C(=O)c2c[nH]c3ncc(-c4ccc(Cl)cc4)cc23)c1F` [vemurafenib], the “probe 1455104_at response, Mxd1 (MAX dimerization protein 1)” value (Repl. 1) was 2.60, the “probe 1455241_at response, BC037703 (cDNA sequence BC037703)” value (Repl. 1) was 0.44 and the “probe 1455299_at response, Vgll3 (vestigial like 3 (Drosophila))” value (Repl. 1) was 0.50. The “probe 1455981_at response, Gm11263 /// Gm12242 /// Gm13654 /// Gm14138 /// Gm16406 /// Gm4796 /// Gm6476 /// Gm9143 /// LOC100043734 /// LOC236932 /// LOC623245 /// LOC639593 /// Rps6” value (Repl. 1) was 0.41, the “probe 1456150_at response, Jhdm1d (jumonji C domain-containing histone demethylase 1 homolog D (S. cerevisiae))” value (Repl. 1) was 1.99 and the “probe 1456174_x_at response, Ndrg1 (N-myc downstream regulated gene 1)” value (Repl. 1) was 1.92. The “probe 1456248_at response, Lce3f /// LOC630971 (late cornified envelope 3F /// hypothetical protein LOC630971)” value (Repl. 1) was 2.26, the “probe 1456284_at response, Tmem171 (transmembrane protein 171)” value (Repl. 1) was 2.10 and the “probe 1456321_at response, Nipal1 (NIPA-like domain containing 1)” value (Repl. 1) was 3.42. For the same compound, the “probe 1456725_x_at response, Ezr (ezrin)” value (Repl. 1) was 0.48, the “probe 1456874_at response, Flrt2 (fibronectin leucine rich transmembrane protein 2)” value (Repl. 1) was 0.52 and the “probe 1457042_at response, AI256396 (EST AI256396)” value (Repl. 1) was 0.48. For the same compound, the “probe 1457568_at response, Hnrnpd (heterogeneous nuclear ribonucleoprotein D)” value (Repl. 1) was 0.44, the “probe 1457666_s_at response, Ifi202b (interferon activated gene 202B)” value (Repl. 1) was 3.60 and the “probe 1460220_a_at response, Csf1 (colony stimulating factor 1 (macrophage))” value (Repl. 1) was 0.40. The “probe 1460302_at response, Thbs1 (thrombospondin 1)” value (Repl. 1) was 0.49, the “probe 1460472_at response, Cdk3 (cyclin-dependent kinase 3)” value (Repl. 1) was 1.91 and the “probe 1460521_a_at response, Obfc2a (oligonucleotide/oligosaccharide-binding fold containing 2A)” value (Repl. 1) was 3.03. For the same compound, the “probe 1460695_a_at response, 2010111I01Rik (RIKEN cDNA 2010111I01 gene)” value (Repl. 1) was 0.51, the “probe 1415828_a_at response, Serp1 (stress-associated endoplasmic reticulum protein 1)” value (Repl. 2) was 1.88 and the “probe 1415936_at response, Bcar3 (breast cancer anti-estrogen resistance 3)” value (Repl. 2) was 2.16. For the same compound, the “probe 1416129_at response, Errfi1 (ERBB receptor feedback inhibitor 1)” value (Repl. 2) was 3.11, the “probe 1416246_a_at response, Coro1a (coronin, actin binding protein 1A)” value (Repl. 2) was 2.19 and the “probe 1416325_at response, Crisp 1 (cysteine-rich secretory protein 1)” value (Repl. 2) was 4.39. For the same compound, the “probe 1416401_at response, Cd82 (CD82 antigen)” value (Repl. 2) was 2.64, the “probe 1416488_at response, Ccng2 (cyclin G2)” value (Repl. 2) was 2.31 and the “probe 1416527_at response, Rab32 (RAB32, member RAS oncogene family)” value (Repl. 2) was 0.48. For the same compound, the “probe 1417065_at response, Egr1 (early growth response 1)” value (Repl. 2) was 4.50, the “probe 1417130_s_at response, Angptl4 (angiopoietin-like 4)” value (Repl. 2) was 2.79 and the “probe 1417328_at response, Ercc1 (excision repair cross-complementing rodent repair deficiency, complementation group 1)” value (Repl. 2) was 2.01. For the same compound, the “probe 1417488_at response, Fosl1 (fos-like antigen 1)” value (Repl. 2) was 2.05, the “probe 1417494_a_at response, Cp (ceruloplasmin)” value (Repl. 2) was 0.43 and the “probe 1417495_x_at response, Cp (ceruloplasmin)” value (Repl. 2) was 0.51. For the same compound, the “probe 1417533_a_at response, Itgb5 (integrin beta 5)” value (Repl. 2) was 0.51, the “probe 1417625_s_at response, Cxcr7 (chemokine (C-X-C motif) receptor 7)” value (Repl. 2) was 2.03 and the “probe 1417677_at response, Opn3 (opsin 3)” value (Repl. 2) was 2.39. For the same compound, the “probe 1417812_a_at response, Lamb3 (laminin, beta 3)” value (Repl. 2) was 2.38, the “probe 1417837_at response, Phlda2 (pleckstrin homology-like domain, family A, member 2)” value (Repl. 2) was 2.11 and the “probe 1417902_at response, Slc19a2 (solute carrier family 19 (thiamine transporter), member 2)” value (Repl. 2) was 2.07. For the same compound, the “probe 1417962_s_at response, Ghr (growth hormone receptor)” value (Repl. 2) was 2.14, the “probe 1418349_at response, Hbegf (heparin-binding EGF-like growth factor)” value (Repl. 2) was 2.70 and the “probe 1418350_at response, Hbegf (heparin-binding EGF-like growth factor)” value (Repl. 2) was 2.46. The “probe 1418538_at response, Kdelr3 (KDEL (Lys-Asp-Glu-Leu) endoplasmic reticulum protein retention receptor 3)” value (Repl. 2) was 2.02, the “probe 1418539_a_at response, Ptpre (protein tyrosine phosphatase, receptor type, E)” value (Repl. 2) was 1.89 and the “probe 1419149_at response, Serpine1 (serine (or cysteine) peptidase inhibitor, clade E, member 1)” value (Repl. 2) was 1.99. The “probe 1419188_s_at response, Ccl27a /// Gm13306 (chemokine (C-C motif) ligand 27A /// predicted gene 13306)” value (Repl. 2) was 2.36, the “probe 1419317_x_at response, Lce3c (late cornified envelope 3C)” value (Repl. 2) was 2.58 and the “probe 1419322_at response, Fgd6 (FYVE, RhoGEF and PH domain containing 6)” value (Repl. 2) was 2.45. The “probe 1419529_at response, Il23a (interleukin 23, alpha subunit p19)” value (Repl. 2) was 2.53, the “probe 1419671_a_at response, Il17rc (interleukin 17 receptor C)” value (Repl. 2) was 0.45 and the “probe 1419722_at response, Klk8 (kallikrein related-peptidase 8)” value (Repl. 2) was 1.94. For the same compound, the “probe 1419816_s_at response, Errfi1 (ERBB receptor feedback inhibitor 1)” value (Repl. 2) was 3.39, the “probe 1420352_at response, Prss22 (protease, serine, 22)” value (Repl. 2) was 3.13 and the “probe 1420380_at response, Cc12 (chemokine (C-C motif) ligand 2)” value (Repl. 2) was 0.41. The “probe 1420407_at response, Ltb4r1 (leukotriene B4 receptor 1)” value (Repl. 2) was 2.24, the “probe 1420450_at response, Mmp10 (matrix metallopeptidase 10)” value (Repl. 2) was 3.93 and the “probe 1420537_at response, Kctd4 (potassium channel tetramerisation domain containing 4)” value (Repl. 2) was 2.58. For the same compound, the “probe 1420760_s_at response, Ndrg1 (N-myc downstream regulated gene 1)” value (Repl. 2) was 2.04 and the “probe 1420913_at response, Slco2a1 (solute carrier organic anion transporter family, member 2a1)” value (Repl. 2) was 1.96.
